One data set concerns the target T1, human PDE5 (Homo sapiens, UniProt O76074).
T1 construct: from tissue; host or cells: human platelets from fresh donor blood (10,000 g supernatant of sonified platelets)
The data set can be described thus: Inhibition of PDE5 activity (modified SPA test, human platelet lysate). The class given is biochemical. The settings on record: PDE5-containing human platelet lysate, 0.5 μM cGMP substrate, 37° C. In short, it runs like this:
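Human platelet lysate (10,000 g supernatant) as PDE5 source; SPA with 0.5 μM cGMP plus [3H]cGMP tracer, 20 mM Tris pH 7.4, 5 mM Mg2+, 1 μM motapizone and 10 nM BAY-60-7550; 5 min preincubation at 37° C., 15 min reaction, stopped with SPA beads containing IBMX. IC50 by non-linear regression.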

Consider 16 compounds from patent US20100120730A1, “6-BENZYL-2,3,4,7-TETRAHYDRO-INDOLO [2,3-C] QUINOLINE COMPOUNDS USEFUL AS PDE5 INHIBITORS” (NYCOMED GmbH, priority 2007, published 2010).

For the compound `COc1ccc(Cc2nc3c(c4c2[nH]c2ccccc24)C(O)CCC3)cc1F` (centres unmarked) [Example 71, 6-(3-Fluoro-4-methoxy-benzyl)-2,3,4,7-tetrahydro-1H-indolo[2,3-c]quinolin-1-ol], the melting point fell in the range of 118 to 120 °C. On human PDE5, this compound showed an IC50 of 2.51 nM.
Regarding `COc1c(F)cc(Cc2nc3c(c4c2[nH]c2ccccc24)C(O)CC(C)(C)C3)cc1F` (centres unmarked) [Example 73, 6-(3,5-Difluoro-4-methoxy-benzyl)-3,3-dimethyl-2,3,4,7-tetrahydro-1H-indolo[2,3-c]quinolin-1-ol], the melting point was 131 to 133 °C. The compound also gave an IC50 at human PDE5 of 0.2 nM.
Consider `COc1ccc(Cc2nc3c(c4c2[nH]c2ccccc24)C(O)CC(C)(C)C3)c(F)c1F` (centres unmarked) [Example 74, 6-(2,3-Difluoro-4-methoxy-benzyl)-3,3-dimethyl-2,3,4,7-tetrahydro-1H-indolo[2,3-c]quinolin-1-ol], for which the melting point was in the range of 197 to 198 °C. Besides, at human PDE5, the half-maximal inhibitory concentration (IC50) was 0.324 nM.
The like results for `NC(=O)Nc1ccc(Cc2nc3c(c4c2[nH]c2ccccc24)C(=O)CCC3)cc1` [Example 76, [4-(1-Oxo-2,3,4,7-tetrahydro-1H-indolo[2,3-c]quinolin-6-ylmethyl)-phenyl]-urea] were, in that order, 232 to 234 °C and 41.7 nM.
On the same counts, the results for `COc1ccc(Cc2nc3c(c4c2[nH]c2ccccc24)CCC(C)(C)C3)cc1` [Example 77, 6-(4-Methoxy-benzyl)-3,3-dimethyl-2,3,4,7-tetrahydro-1H-indolo[2,3-c]quinoline] are 158 °C and 6.31 nM.
On the same counts, the results for `COc1ccc(Cc2c3[nH]c4ccccc4c3c3c([n+]2[O-])CC(C)(C)CC3=O)cc1` [Example 78, 6-(4-Methoxy-benzyl)-3,3-dimethyl-5-oxy-2,3,4,7-tetrahydro-indolo[2,3-c]quinolin-1-one] are 202 °C and 15.5 nM.
As for `COc1ccc(Cc2nc3c(c4c2[nH]c2ccccc24)[C@@H](O)CC(C)(C)C3)cc1F` [Example 79, (S)-6-(3-Fluoro-4-methoxy-benzyl)-3,3-dimethyl-2,3,4,7-tetrahydro-1H-indolo[2,3-c]quinolin-1-ol], the melting point was in the range of 164 to 166 °C. The compound also had an IC50 at human PDE5 of 0.794 nM.
Compound `COc1ccc(Cc2nc3c(c4c2[nH]c2ccccc24)[C@H](O)CC(C)(C)C3)cc1` [Example 80, (R)-6-(4-Methoxy-benzyl)-3,3-dimethyl-2,3,4,7-tetrahydro-1H-indolo[2,3-c]quinolin-1-ol] came in with a melting point of 118 to 120 °C. It took 100 nM to reach half-maximal inhibition on human PDE5 (IC50).
The like results for `COc1ccc(Cc2nc3c(c4c2[nH]c2ccccc24)[C@@H](O)CC(C)(C)C3)cc1` [Example 81, (S)-6-(4-Methoxy-benzyl)-3,3-dimethyl-2,3,4,7-tetrahydro-1H-indolo[2,3-c]quinolin-1-ol] were, in that order, 118 to 120 °C and 1 nM.
The like results for `COc1ccc(Cc2nc3c(c4c2[nH]c2ccccc24)[C@H](O)CC(C)(C)C3)cc1F` [Example 82, (R)-6-(3-Fluoro-4-methoxy-benzyl)-3,3-dimethyl-2,3,4,7-tetrahydro-1H-indolo[2,3-c]quinolin-1-ol] were, in that order, 164 to 166 °C and 31.6 nM.
The like results for `COc1ccc(Cc2nc3c(c4c2[nH]c2ccccc24)[C@H](O)CCC3)cc1F` [Example 83, (R)-6-(3-Fluoro-4-methoxy-benzyl)-2,3,4,7-tetrahydro-1H-indolo[2,3-c]quinolin-1-ol] were, in that order, 124 to 127 °C and 25.1 nM.
With `CC1(C)Cc2nc(Cc3cc(F)cc(F)c3)c3[nH]c4ccccc4c3c2[C@H](O)C1` [Example 84, (R)-6-(3,5-Difluoro-benzyl)-3,3-dimethyl-2,3,4,7-tetrahydro-1H-indolo[2,3-c]quinolin-1-ol], the melting point was in the range of 129 to 131 °C. On human PDE5, it took 398 nM to reach half-maximal inhibition (IC50).
The compound `COc1ccc(Cc2nc3c(c4c2[nH]c2ccccc24)[C@@H](O)CCC3)cc1F` [Example 85, (S)-6-(3-Fluoro-4-methoxy-benzyl)-2,3,4,7-tetrahydro-1H-indolo[2,3-c]quinolin-1-ol] gave a melting point of 125 to 127 °C. Besides, the IC50 at human PDE5 is 2 nM.
The like results for `CC1(C)Cc2nc(Cc3cc(F)cc(F)c3)c3[nH]c4ccccc4c3c2[C@@H](O)C1` [Example 86, (S)-6-(3,5-Difluoro-benzyl)-3,3-dimethyl-2,3,4,7-tetrahydro-1H-indolo[2,3-c]quinolin-1-ol] were, in that order, 130 to 131 °C and 3.16 nM.
In turn, `CC1(C)Cc2nc(Cc3cccc(F)c3)c3[nH]c4ccccc4c3c2[C@@H](O)C1` [Example 93, (S)-6-(3-Fluoro-benzyl)-3,3-dimethyl-2,3,4,7-tetrahydro-1H-indolo[2,3-c]quinolin-1-ol] returned a melting point of 123 to 126 °C. This compound also showed an IC50 on human PDE5 of 3.89 nM.
On the same counts, the results for `CC1(C)Cc2nc(Cc3cccc(Cl)c3)c3[nH]c4ccccc4c3c2[C@@H](O)C1` [Example 94, (S)-6-(3-Chloro-benzyl)-3,3-dimethyl-2,3,4,7-tetrahydro-1H-indolo[2,3-c]quinolin-1-ol] are 124 to 127 °C and 15.1 nM.

Usually melting point stands for the temperature, or range, at which the solid turns liquid. One may read the IC50 as the concentration at which inhibition is half-maximal.
